Data on 2 compounds can be found in ChEMBL document CHEMBL1201862, “PubChem BioAssay data set” (2004).

Each structure is given as a SMILES string.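 These data come from cells grown in 96-well plates and exposed to compound for 48 hours at five concentrations. Abbreviation: GI50, concentration required for 50% inhibition of growth.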 The source made the active and inactive calls. Cut-off read from the data, not from the text of the source: active = GI50 up to about 1.1 µM and inactive = higher. Where only a bound is given, the exact number is not on record here.

Test systems include TK-10; SF-539; PC-3; HOP-62; HCC 2998; RXF 393; SR; SNB-19; HOP-92; HCT-15; NCI-H23; RPMI-8226; SF-295; MOLT-4; UACC-257; M14; SK-MEL-2; U-251; NCI-H460; OVCAR-3.
Experiment in all cases: DTP human tumour cell line panel, 48 h

In general, GI50 refers to the concentration at which growth is held to half of that of the control. Regarding `CCOC(=O)c1csc(NC(=O)CCN2CCOCC2)n1`, the GI50 is 39.9 µM (inactive) in the assay on TK-10; > 100 µM (inactive) in the assay with SF-539; 67.6 µM (inactive) with PC-3; > 100 µM (inactive) in the assay with HOP-62; > 100 µM (inactive) in the assay on HCC 2998; 75.5 µM (inactive) with RXF 393. Also, the GI50 is 66.2 µM (inactive) with SR; > 100 µM (inactive) in the assay with SNB-19; 69.3 µM (inactive) with HOP-92; 49.7 µM in the assay with HCT-15; > 100 µM (inactive) in the assay with NCI-H23; 43.3 µM (inactive) in the assay on RPMI-8226. The GI50 in the assay with SF-295 was > 100 µM (inactive); in the assay with MOLT-4, 25.9 µM (inactive); with UACC-257, 92.9 µM (inactive); with M14 it was 76.2 µM (inactive); in the assay on SK-MEL-2, > 100 µM (inactive); with U-251 it was > 100 µM (inactive). For the same compound, the figures for the GI50 in the assay on NCI-H460 and with OVCAR-3 were > 100 µM (inactive) and 39.6 µM (inactive), respectively.
`Cc1ccc(-c2cs/c(=N\c3c(C)n(C)n(-c4ccccc4)c3=O)n2CCO)cc1`: the GI50 in the assay on TK-10, in the assay with SF-539, with PC-3, with HOP-62, in the assay with HCC 2998 and in the assay on RXF 393 was > 100 µM (inactive) each time. The GI50 with SR was > 100 µM (inactive); with SNB-19, > 100 µM (inactive); in the assay on HOP-92 it was > 100 µM (inactive); in the assay on HCT-15 it was more than 100 µM; with NCI-H23, 50.8 µM (inactive); with RPMI-8226, > 100 µM (inactive). Moreover, the GI50 in the assay on SF-295 was > 100 µM (inactive); in the assay on MOLT-4, 87.5 µM (inactive); in the assay on UACC-257, 53.8 µM (inactive); with M14 it was > 100 µM (inactive); with SK-MEL-2, > 100 µM (inactive); in the assay with U-251, > 100 µM (inactive). Further, the GI50 in the assay on NCI-H460 and in the assay on OVCAR-3 was > 100 µM (inactive) each time.
